In ChEMBL document CHEMBL4673372, “1,2,3-triazole-thiazole hybrids: Synthesis, in vitro antimicrobial activity and antibiofilm studies” (Bioorg Med Chem Lett, 2021):
≈ marks a conversion by molar mass, not a printed value. Each block holds one molecule with its values, some of them ahead of it.

Columns and labels:
[1] = system: Staphylococcus aureus; test: Inhibition of biofilm formation in Staphylococcus aureus MLS16 MTCC 2940 incubated for 24 hrs by crystal violet staining based microtiter plate method; assay type: functional, organism-based
[2] = system: Candida albicans; test: Antifungal activity against Candida albicans MTCC 3018; assay type: functional
[3] = system: Raoultella planticola; test: Inhibition of biofilm formation in Klebsiella planticola MTCC 530 incubated for 24 hrs by crystal violet staining based microtiter plate method; assay type: functional, organism-based
[4] = system: Candida albicans; test: Antifungal activity against Candida albicans MTCC 4748; assay type: functional
[5] = system: [Candida] aaseri; test: Fungicidal activity against Candida aaseri MTCC 1962; assay type: functional; conditions: Yamadazyma aaseri
[6] = system: Nakaseomyces glabratus; test: Fungicidal activity against Candida glabrata MTCC 3019; assay type: functional
[7] = system: Pichia sporocuriosa; test: Fungicidal activity against Issatchenkia hanoiensis MTCC 4755; assay type: functional
[8] = system: Candida albicans; test: Fungicidal activity against Candida albicans MTCC 854; assay type: functional
[9] = system: Candida albicans; test: Fungicidal activity against Candida albicans MTCC 3958; assay type: functional
[10] = system: Pichia sporocuriosa; test: Antifungal activity against Issatchenkia hanoiensis MTCC 4755; assay type: functional
[11] = system: Candida parapsilosis; test: Fungicidal activity against Candida parapsilosis MTCC 1745; assay type: functional; conditions: Lodderomyces parapsilosis
[12] = system: Pichia kudriavzevii; test: Antifungal activity against Candida krusei MTCC 3020; assay type: functional
[13] = system: Candida parapsilosis; test: Antifungal activity against Candida parapsilosis MTCC 1745; assay type: functional; conditions: Lodderomyces parapsilosis
[14] = system: Candida albicans; test: Antifungal activity against Candida albicans MTCC 227; assay type: functional
[15] = system: Candida albicans; test: Antifungal activity against Candida albicans MTCC 3958; assay type: functional
[16] = system: Candida albicans; test: Fungicidal activity against Candida albicans MTCC 183; assay type: functional
[17] = system: Candida albicans; test: Fungicidal activity against Candida albicans MTCC 227; assay type: functional
[18] = system: Candida albicans; test: Antifungal activity against Candida albicans MTCC 854; assay type: functional
[19] = system: Candida albicans; test: Antifungal activity against Candida albicans MTCC 183; assay type: functional
[20] = system: Nakaseomyces glabratus; test: Antifungal activity against Candida glabrata MTCC 3019; assay type: functional
[21] = system: Candida albicans; test: Antifungal activity against Candida albicans MTCC 1637; assay type: functional
[22] = system: Bacillus subtilis; test: Inhibition of biofilm formation in Bacillus subtilis MTCC 121 incubated for 24 hrs by crystal violet staining based microtiter plate method; assay type: functional, organism-based
[23] = system: Pseudomonas aeruginosa; test: Inhibition of biofilm formation in Pseudomonas aeruginosa MTCC 2453 incubated for 24 hrs by crystal violet staining based microtiter plate method; assay type: functional, organism-based
[24] = system: Escherichia coli; test: Inhibition of biofilm formation in Escherichia coli MTCC 739 incubated for 24 hrs by crystal violet staining based microtiter plate method; assay type: functional, organism-based
[25] = system: Candida albicans; test: Inhibition of biofilm formation in Candida albicans MTCC 3017 incubated for 24 hrs by crystal violet staining based microtiter plate method; assay type: functional, organism-based; conditions: Candida albicans, MTCC 3017, 24 h; read-out: IC50
[26] = system: Candida albicans; test: Fungicidal activity against Candida albicans MTCC 4748; assay type: functional
[27] = system: Micrococcus luteus; test: Inhibition of biofilm formation in Micrococcus luteus MTCC 2470 incubated for 24 hrs by crystal violet staining based microtiter plate method; assay type: functional, organism-based
[28] = system: Candida albicans; test: Fungicidal activity against Candida albicans MTCC 3018; assay type: functional
[29] = system: Candida albicans; test: Fungicidal activity against Candida albicans MTCC 1637; assay type: functional
[30] = system: [Candida] aaseri; test: Antifungal activity against Candida aaseri MTCC 1962; assay type: functional; conditions: Yamadazyma aaseri
[31] = system: Pichia kudriavzevii; test: Fungicidal activity against Candida krusei MTCC 3020; assay type: functional
[32] = system: Staphylococcus aureus; test: Inhibition of biofilm formation in Staphylococcus aureus […] incubated for 24 hrs by crystal violet staining based microtiter plate method; assay type: functional, organism-based
[33] = system: Raoultella planticola; test: Antibacterial activity against Klebsiella planticola MTCC 530 assessed as inhibition of bacterial growth by microtiter broth dilution method; assay type: functional
[34] = system: THP-1; test: Cytotoxicity against human THP-1 cells assessed as cell damage at 200 uM by LDH assay; assay type: cell-based; conditions: thp-1, 200 µM
[35] = system: Escherichia coli; test: Antibacterial activity against Escherichia coli MTCC 739 assessed as inhibition of bacterial growth by microtiter broth dilution method; assay type: functional
[36] = Selectivity index, ratio of CC50 for human THP-1 cells to MIC for Staphylococcus aureus MTCC 96; assay type: toxicity
[37] = system: Bacillus subtilis; test: Antibacterial activity against Bacillus subtilis MTCC 121 assessed as inhibition of bacterial growth by microtiter broth dilution method; assay type: functional
[38] = system: Micrococcus luteus; test: Antibacterial activity against Micrococcus luteus MTCC 2470 assessed as inhibition of bacterial growth by microtiter broth dilution method; assay type: functional
[39] = system: Staphylococcus aureus; test: Antibacterial activity against Staphylococcus aureus MTCC 96 assessed as inhibition of bacterial growth by microtiter broth dilution method; assay type: functional
[40] = system: Raoultella planticola; test: Bactericidal activity against Klebsiella planticola MTCC 530; assay type: functional
[41] = system: Bacillus subtilis; test: Bactericidal activity against Bacillus subtilis MTCC 121; assay type: functional
[42] = system: Micrococcus luteus; test: Bactericidal activity against Micrococcus luteus MTCC 2470; assay type: functional
[43] = system: Pseudomonas aeruginosa; test: Antibacterial activity against Pseudomonas aeruginosa MTCC 2453 assessed as inhibition of bacterial growth by microtiter broth dilution method; assay type: functional
[44] = system: Pseudomonas aeruginosa; test: Bactericidal activity against Pseudomonas aeruginosa MTCC 2453; assay type: functional
[45] = system: Staphylococcus aureus; test: Antibacterial activity against Staphylococcus aureus MLS16 MTCC 2940 assessed as inhibition of bacterial growth by microtiter broth dilution method; assay type: functional
[46] = system: Escherichia coli; test: Bactericidal activity against Escherichia coli MTCC 739; assay type: functional
[47] = system: Staphylococcus aureus; test: Bactericidal activity against Staphylococcus aureus MTCC 96; assay type: functional
[48] = Cytotoxicity against human THP-1 cells; assay type: cell-based
[49] = system: Staphylococcus aureus; test: Bactericidal activity against Staphylococcus aureus MLS16 MTCC 2940; assay type: functional
[50] = system: THP-1; test: Cytotoxicity against human THP-1 cells assessed as reduction in cell viability at 200 uM by MTT assay; assay type: cell-based; conditions: thp-1, 200 µM

MIC [2]: 18.7 µM (≈ 7.78 µg/mL)
MIC [4]: 18.7 µM (≈ 7.78 µg/mL)
MIC [10]: 18.7 µM (≈ 7.78 µg/mL)
MIC [12]: 18.7 µM (≈ 7.78 µg/mL)
MIC [13]: 18.7 µM (≈ 7.78 µg/mL)
MIC [14]: 18.7 µM (≈ 7.78 µg/mL)
MIC [15]: 18.7 µM (≈ 7.78 µg/mL)
MIC [18]: 18.7 µM (≈ 7.78 µg/mL)
MIC [19]: 18.7 µM (≈ 7.78 µg/mL)
MIC [20]: 18.7 µM (≈ 7.78 µg/mL)
MIC [21]: 18.7 µM (≈ 7.78 µg/mL)
MIC [30]: 18.7 µM (≈ 7.78 µg/mL)
SMILES: Clc1ccc(COC(Cn2ccnc2)c2ccc(Cl)cc2Cl)c(Cl)c1 (stereo not given) [MICONAZOLE]
IC50 [1]: Not Active
IC50 [3]: Not Active
MFC [5]: 18.7 µM (≈ 7.78 µg/mL)
MFC [6]: 18.7 µM (≈ 7.78 µg/mL)
MFC [7]: 18.7 µM (≈ 7.78 µg/mL)
MFC [8]: 18.7 µM (≈ 7.78 µg/mL)
MFC [9]: 18.7 µM (≈ 7.78 µg/mL)
MFC [11]: 18.7 µM (≈ 7.78 µg/mL)
MFC [16]: 18.7 µM (≈ 7.78 µg/mL)
MFC [17]: 18.7 µM (≈ 7.78 µg/mL)
IC50 [22]: Not Active
IC50 [23]: Not Active
IC50 [24]: Not Active
IC50 [25]: 2.5 µM
MFC [26]: 18.7 µM (≈ 7.78 µg/mL)
IC50 [27]: Not Active
MFC [28]: 18.7 µM (≈ 7.78 µg/mL)
MFC [29]: 18.7 µM (≈ 7.78 µg/mL)
MFC [31]: 18.7 µM (≈ 7.78 µg/mL)
IC50 [32]: Not Active

MIC [2]: 5.9 µM (≈ 3.89 µg/mL)
MIC [4]: > 190 µM
MIC [35]: 5.9 µM (≈ 3.89 µg/mL)
MIC [10]: > 190 µM
MIC [12]: > 190 µM
MIC [37]: 5.9 µM (≈ 3.89 µg/mL)
MIC [13]: > 190 µM
MIC [38]: 5.9 µM (≈ 3.89 µg/mL)
MIC [39]: 5.9 µM (≈ 3.89 µg/mL)
MIC [14]: > 190 µM
MIC [15]: > 190 µM
MIC [18]: > 190 µM
MIC [19]: 11.8 µM (≈ 7.78 µg/mL)
MIC [20]: 5.9 µM (≈ 3.89 µg/mL)
MIC [43]: 5.9 µM (≈ 3.89 µg/mL)
MIC [45]: 5.9 µM (≈ 3.89 µg/mL)
MIC [21]: 5.9 µM (≈ 3.89 µg/mL)
MIC [30]: 5.9 µM (≈ 3.89 µg/mL)
SMILES: COc1ccc(-n2cc(COc3ccc(/C=N/Nc4nc(-c5cc6cc(Br)cc(OC)c6oc5=O)cs4)cc3)nn2)cc1
IC50 [1]: Not Active
IC50 ([3]; Klebsiella planticola, MTCC 530, 24 h, read-out: IC50): 22.2 µM
MIC [33]: 2.8 µM (≈ 1.85 µg/mL)
MFC [5]: 11.8 µM (≈ 7.78 µg/mL)
MFC [6]: 11.8 µM (≈ 7.78 µg/mL)
Activity [34]: Toxic
selectivity ratio [36]: 5.14
MBC [40]: 5.9 µM (≈ 3.89 µg/mL)
MFC [16]: 23.7 µM (≈ 15.6 µg/mL)
MBC [41]: 11.8 µM (≈ 7.78 µg/mL)
MBC [42]: 11.8 µM (≈ 7.78 µg/mL)
MBC [44]: 11.8 µM (≈ 7.78 µg/mL)
MBC [46]: 11.8 µM (≈ 7.78 µg/mL)
IC50 ([22]; Bacillus subtilis, MTCC 121, 24 h, read-out: IC50): 15.9 µM
IC50 ([23]; Pseudomonas aeruginosa, MTCC 2453, 24 h, read-out: IC50): 24.7 µM
IC50 ([24]; Escherichia coli, MTCC 739, 24 h, read-out: IC50): 21.9 µM
IC50 [25]: 40.6 µM
IC50 ([27]; Micrococcus luteus, MTCC 2470, 24 h, read-out: IC50): 47.8 µM
MBC [47]: 11.8 µM (≈ 7.78 µg/mL)
MFC [28]: 11.8 µM (≈ 7.78 µg/mL)
MFC [29]: 11.8 µM (≈ 7.78 µg/mL)
CC50 [48]: 30.3 µM
IC50 ([32]; Staphylococcus aureus, MTCC 92, 24 h, read-out: IC50): 12 µM
MBC [49]: 11.8 µM (≈ 7.78 µg/mL)
Activity [50]: Toxic
